In patent US12344610B2, “APOL1 inhibitors and methods of use” (Maze Therapeutics, Inc., priority 2022, dated 2025) one finds AC50 and EC50 data, which are given here for 23 molecules.

The target of one assay is T1, APOL1 G2 (Homo sapiens, UniProt O14791, DEL388-389).
T1 construct: expressed in transfected cells; host or cells: HEK293 T-REx clonal line stably expressing GCaMP6f (HEK T-REx/GCaMP6f/APOL1 G2 K6.3), doxycycline induced
T1 sequence (O14791 with tags, fused parts or gaps DEL388-389): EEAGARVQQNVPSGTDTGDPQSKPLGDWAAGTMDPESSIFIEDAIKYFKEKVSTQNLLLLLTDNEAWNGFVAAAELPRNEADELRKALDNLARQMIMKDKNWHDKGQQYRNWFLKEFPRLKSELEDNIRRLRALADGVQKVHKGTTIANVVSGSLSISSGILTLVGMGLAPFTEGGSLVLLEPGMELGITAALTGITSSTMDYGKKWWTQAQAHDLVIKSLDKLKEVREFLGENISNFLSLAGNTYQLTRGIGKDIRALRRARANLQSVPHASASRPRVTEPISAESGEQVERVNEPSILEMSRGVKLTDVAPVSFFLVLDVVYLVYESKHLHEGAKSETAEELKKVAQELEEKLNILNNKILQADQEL
Briefly: APOL1-mediated calcium transport (calcium influx) assay, HEK T-REx/GCaMP6f/APOL1 G2 K6.3 cells, FLIPR TETRA. In kind it is cell-based. The note with it: prevention of calcium influx; geometric mean of at least 2 assay runs; † = average of a technical replicate from a single assay run. The procedure, abridged: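 A HEK293 T-REx clone stably expressing GCaMP6f had APOL1 G2 induced with doxycycline (20 ng/mL solution added) for 6 h. Cells were then washed into Ca2+-free Tyrode's buffer (pH 7.4) and preincubated with compounds (duplicate 8-point) for 10 min at room temperature. Ca2+ injection to 5 mM final produced FLIPR GCaMP fluorescence, giving AC50 for influx inhibition (geometric mean, ≥2 runs).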

The subject of assay [1] is HEK293 clonal cell line overexpressing APOL1 G1. Briefly: APOL1 G1 HEK293 cell rescue assay (Example B3). The class given is cell-based. Particulars: geometric mean of at least 2 runs, † = single run, ¥ = concentration at 50% rescue estimated (no sigmoidal curve). The procedure, abridged: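 HEK293 clonal line overexpressing APOL1 G1; EC50 is half-maximal reversal of APOL1-induced cell death. Values are the geometric mean of ≥2 runs on separate days, each run the average of duplicate wells. Where no sigmoidal curve could be fitted, the concentration giving 50% rescue was estimated.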

Where [2] appears, read: Homo sapiens, HEK293, HEK293 clonal line overexpressing APOL1 G1.
Where [3] appears, read: HEK293 clonal line overexpressing APOL1 G1.

Take `CS(=O)(=O)C1(c2ccc(OCCN3CCC4(CC3)C(=O)Nc3ccc(Cl)cc34)cc2C(F)(F)F)COC1` [Compound 165, 5-chloro-1′-{2-[4-(3-methanesulfonyloxetan-3-yl)-3-(trifluoromethyl)phenoxy]ethyl}-1,2-dihydrospiro[indole-3,4′-piperidin]-2-one]: on APOL1 G2, the AC50 stood at 558 nM. In assay [1] (setting [2]), the EC50 was 59 nM.
For `CS(=O)(=O)C1(c2ccc(OCCN3CCC4(CC3)C(=O)Nc3ccc(Cl)cc34)cc2)CC1` [Compound 102, 5-chloro-1′-{2-[4-(1-methanesulfonylcyclopropyl)phenoxy]ethyl}-1,2-dihydrospiro[indole-3,4′-piperidin]-2-one] the same measures were 671 nM and 111 nM.
For `CS(=O)(=O)c1ccc(OCCN2CCC3(CC2)C(=O)Nc2ccc(Cl)cc23)cc1C(F)(F)F` [Compound 108, 5-chloro-1′-{2-[4-methanesulfonyl-3-(trifluoromethyl)phenoxy]ethyl}-1,2-dihydrospiro[indole-3,4′-piperidin]-2-one] the same measures were 860 nM and 49.7 nM.
For `CN1CCc2cc(OCCN3CCC4(CC3)C(=O)Nc3ccc(Cl)cc34)ccc2S1(=O)=O` [Compound 153, 6-(2-{5-chloro-2-oxo-1,2-dihydrospiro[indole-3,4′-piperidin]-1′-yl}ethoxy)-2-methyl-3,4-dihydro-2H-1λ^6,2-benzothiazine-1,1-dione] the same measures were 826 nM and 96.2 nM.
On to `Cc1cc(OCCN2CCC3(CC2)C(=O)Nc2ccc(Cl)cc23)cnc1S(C)(=O)=O` [Compound 161, 5-chloro-1′-{2-[(6-methanesulfonyl-5-methylpyridin-3-yl)oxy]ethyl}-1,2-dihydrospiro[indole-3,4′-piperidin]-2-one], for which the concentration at half-maximal activity (AC50) on APOL1 G2 amounted to 539 nM. Also, the EC50 in assay [1] (setting [2]) was 135 nM.
On the same counts, the results for `O=C1Nc2ccc(Cl)cc2C12CCN(CCOc1ccc(S(=O)(=O)C(F)F)cc1)CC2` [Compound 112, 5-chloro-1′-[2-(4-difluoromethanesulfonylphenoxy)ethyl]-1,2-dihydrospiro[indole-3,4′-piperidin]-2-one] are 746 nM and 77.5 nM.
On the same counts, the results for `CS(=O)(=O)C1(c2ccc(OCCN3CCC4(CC3)C(=O)N(CC(F)(F)F)c3ccc(Cl)cc34)cc2)COC1` [Compound 185, 5-chloro-1′-{2-[4-(3-methanesulfonyloxetan-3-yl)phenoxy]ethyl}-1-(2,2,2-trifluoroethyl)-1,2-dihydrospiro[indole-3,4′-piperidin]-2-one] are 993 nM and 231 nM.
With `CC(c1c(F)cc(OCCN2CCC3(CC2)C(=O)Nc2ccc(C#N)cc23)cc1F)S(C)(=O)=O` (single isomer, unassigned) [Compound 139, (R) or (S)-1′-{2-[3,5-difluoro-4-(1-methanesulfonylethyl)phenoxy]ethyl}-2-oxo-1,2-dihydrospiro[indole-3,4′-piperidine]-5-carbonitrile], at APOL1 G2, the AC50 is 1120 nM. Moreover, the EC50 in assay [1] (setting [3]) is 383 nM.
Regarding `CC(c1ccc(OCCN2CCC3(CC2)C(=O)Nc2ccc(C#N)cc23)cc1)S(C)(=O)=O` (single isomer, unassigned) [Compound 134, (S) or (R)-1′-{2-[4-(1-methanesulfonylethyl)phenoxy]ethyl}-2-oxo-1,2-dihydrospiro[indole-3,4′-piperidine]-5-carbonitrile], the AC50 on APOL1 G2 stood at 879 nM. For the same molecule, the EC50 in assay [1] (setting [2]) is 991 nM.
In the case of `CN(c1c(F)cc(OCCN2CCC3(CC2)C(=O)Nc2ccc(Cl)cc23)cc1F)S(C)(=O)=O` [Compound 127, N-[4-(2-{5-chloro-2-oxo-1,2-dihydrospiro[indole-3,4′-piperidin]-1′-yl}ethoxy)-2,6-difluorophenyl]-N-methylmethanesulfonamide], the AC50 on APOL1 G2 is 542 nM. The EC50 in assay [1] (setting [2]) was 61 nM.
As to `CN=S(C)(=O)c1ccc(OCCN2CCC3(CC2)C(=O)Nc2ccc(C#N)cc23)cc1` (single isomer, unassigned) [Compound 152, (R) or (S)-1′-(2-{4-[methyl(methylimino)oxo-λ^6-sulfanyl]phenoxy}ethyl)-2-oxo-1,2-dihydrospiro[indole-3,4′-piperidine]-5-carbonitrile], the AC50 on APOL1 G2 is 1820 nM. For the same molecule, the EC50 in assay [1] (setting [3]) is > 4170 nM.
Take `Cn1c(=O)oc2cc(OCCN3CCC4(CC3)C(=O)Nc3ccc(Cl)cc34)ccc21` [Compound 131, 5-chloro-1′-{2-[(3-methyl-2-oxo-2,3-dihydro-1,3-benzoxazol-6-yl)oxy]ethyl}-1,2-dihydrospiro[indole-3,4′-piperidin]-2-one]: the AC50 on APOL1 G2 was determined as 464 nM. In assay [1] (setting [2]), the EC50 was 186 nM.
On the same counts, the results for `CC(C)N1C(=O)Cc2cc(OCCN3CCC4(CC3)C(=O)Nc3ccc(Cl)cc34)ccc21` [Compound 145, 5-chloro-1′-(2-{[2-oxo-1-(propan-2-yl)-2,3-dihydro-1H-indol-5-yl]oxy}ethyl)-1,2-dihydrospiro[indole-3,4′-piperidin]-2-one] are 465 nM and 98.5 nM.
For `CC(C)n1ncc2cc(OCCN3CCC4(CC3)C(=O)Nc3ccc(Cl)cc34)ccc21` [Compound 16, 5-chloro-1′-(2-{[1-(propan-2-yl)-1H-indazol-5-yl]oxy}ethyl)-1,2-dihydrospiro[indole-3,4′-piperidin]-2-one] the same measures were 1160 nM and 295 nM.
Turning to `Cc1cc(OCCN2CCC3(CC2)C(=O)Nc2ccc(C#N)cc23)ccc1S(C)(=O)=O` [Compound 111, 1′-[2-(4-methanesulfonyl-3-methylphenoxy)ethyl]-2-oxo-1,2-dihydrospiro[indole-3,4′-piperidine]-5-carbonitrile], the AC50 on APOL1 G2 was found to be 919 nM. The EC50 in assay [1] (setting [2]) was 246 nM.
`CN=S(C)(=O)c1ccc(OCCN2CCC3(CC2)C(=O)Nc2ccc(C#N)cc23)cc1` (single isomer, unassigned) [Compound 151, (S) or (R)-1′-(2-{4-[methyl(methylimino)oxo-λ^6-sulfanyl]phenoxy}ethyl)-2-oxo-1,2-dihydrospiro[indole-3,4′-piperidine]-5-carbonitrile]: the concentration at half-maximal activity (AC50) at APOL1 G2 was determined as 1740 nM. In addition, the EC50 in assay [1] (setting [2]) is ~2500 nM.
On the same counts, the results for `CS(=O)(=O)C1(c2ccc(OCCN3CCC4(CC3)C(=O)Nc3ccc(Cl)cc34)cc2)CCC1` [Compound 180, 5-chloro-1′-{2-[4-(1-methanesulfonylcyclobutyl)phenoxy]ethyl}-1,2-dihydrospiro[indole-3,4′-piperidin]-2-one] are 756 nM and 74.9 nM.
For `CC(C)(c1ccc(OCCN2CCC3(CC2)C(=O)Nc2ccc(C#N)cc23)cn1)S(C)(=O)=O` [Compound 191, 1′-(2-{[6-(2-methanesulfonylpropan-2-yl)pyridin-3-yl]oxy}ethyl)-2-oxo-1,2-dihydrospiro[indole-3,4′-piperidine]-5-carbonitrile], on APOL1 G2, the AC50 amounted to 1170 nM. Moreover, the 50% effective concentration (EC50) in assay [1] (setting [2]) is 283 nM.
On to `Cc1cc(OCCN2CCC3(CC2)C(=O)Nc2ccc(C#N)cc23)cnc1S(C)(=O)=O` [Compound 140, 1′-{2-[(6-methanesulfonyl-5-methylpyridin-3-yl)oxy]ethyl}-2-oxo-1,2-dihydrospiro[indole-3,4′-piperidine]-5-carbonitrile], for which, on APOL1 G2, the AC50 came out at 807 nM. Further, in assay [1] (setting [2]), the EC50 is 600 nM.
On the same counts, the results for `CS(=O)(=O)c1ccc(OCCN2CCC3(CC2)C(=O)Nc2ccc(C#N)cc23)cc1C(F)F` [Compound 100, 1′-{2-[3-(difluoromethyl)-4-methanesulfonylphenoxy]ethyl}-2-oxo-1,2-dihydrospiro[indole-3,4′-piperidine]-5-carbonitrile] are 503 nM and 134 nM.
As to `CC1(Oc2ncc(OCCN3CCC4(CC3)C(=O)Nc3ccc(Cl)cc34)cn2)COC1` [Compound 172, 5-chloro-1′-[2-({2-[(3-methyloxetan-3-yl)oxy]pyrimidin-5-yl}oxy)ethyl]-1,2-dihydrospiro[indole-3,4′-piperidin]-2-one], on APOL1 G2, the AC50 came out at 479 nM. The EC50 in assay [1] (setting [2]) is 188 nM.
For `CS(=O)(=O)C1(c2ccc(OCCN3CCC4(CC3)C(=O)Nc3ccc(C#N)cc34)cc2)COC1` [Compound 109, 1′-{2-[4-(3-methanesulfonyloxetan-3-yl)phenoxy]ethyl}-2-oxo-1,2-dihydrospiro[indole-3,4′-piperidine]-5-carbonitrile] the same measures were 1190 nM and 321 nM.
For `CC(C)(C#N)c1ccc(OCCN2CCC3(CC2)C(=O)Nc2ccc(C#N)cc23)cc1` [Compound 157, 1′-{2-[4-(1-cyano-1-methylethyl)phenoxy]ethyl}-2-oxo-1,2-dihydrospiro[indole-3,4′-piperidine]-5-carbonitrile] the same measures were 933 nM and 152 nM.
